# In article PMC8049364, “Quantification of Macrophage-Driven Inflammation During Myocardial Infarction with ^18F-LW223, a Novel TSPO Radiotracer with Binding Independent of the rs6971 Human Polymorphism” (Journal of Nuclear Medicine, 2021):
# Legend:
# [1] = Plasma free fraction by ultrafiltration; type: in vitro ADME; details: Sprague-Dawley, rat, mean ± SEM, n = 5, read-out: parent free fraction in plasma
# Procedure: kept on ice until analyzed. Radioactivity in whole blood and plasma, as well as homogenized tissue samples, was assessed using a well-type γ-counter using a 400– 1400 keV window (Perkin Elmer Wizzard2, USA). Plasma samples (400 μl) and tissue samples (500 μl) were processed by acetonitrile denaturation (1:1.4 v/v) and analyzed by HPLC (Ultimate2000, ThermoFisher, UK) on a Luna C18(2) 10×250 mm, 10 μm column (Phenomenex, UK) with acetonitrile/water 70/30 and flow rate of 4 mL/min to estimate the parent fraction. The plasma fp was determined using ultrafiltration units (Centrifree® 30K, […]
# Simulation of Changes in 18F-LW223 BPND for varying blood flow scenarios Simulation work was carried out using a Matlab (MathWorks, USA) 2-tissue compartment code with Ordinary Differential Equation (ODE) solvers. Six different levels of K1 values (0.9, 0.7, 0.5, 0.3, 0.1 and 0.01 mL/min/cc) were tested with fixed k2 and vB=0.05. The following BPND values were simulated: 4, 10, 16 and 20; with k3 modified and k4 fixed. All micro parameters used in the simulations are shown in Supplementa l Table 5. The input function used was an average of the blood curve s taken from healthy animals using the SwissTrace blood sampler (Supplemental Data File 1). The plasma to whole blood ratio used was 1.84 and the AIF was metabolite corrected using a population based curve as in the experimental data. […]
# [2] = target: T1, TSPO (Rattus norvegicus, UniProt P16257); assay: PET/CT imaging and 2-tissue-compartment kinetic modelling in naïve and PK11195-blocked rats; type: in vivo; design: K1 (2T analysis), mean / k2 (2T analysis), mean / k3 (2T analysis), mean / k4 (2T analysis), mean / VT (2T analysis), mean: unit not given here
# T1 construct: Thirty-three adult male Sprague–Dawley rats; from tissue; host or cells: living adult male Sprague-Dawley rats; heart, LV anterior wall, lung and brain VOIs
# Procedure: Thirty-two PET scans were performed with ^18F-LW223 (17.8 ± 1.5 MBq, intravenous bolus, mean ± SEM). Naïve and MI rat scans were acquired immediately after intravenous bolus injection of ^18F-LW223. […] Dosimetry studies were conducted using mice and 240-min PET scans.
# A commercially available system (Twilite2; Swisstrace) was used for the measurement of blood radioactivity as previously described ([17]). The whole-blood arterial input function measured by the automatic blood sampler was corrected for the plasma–to–whole-blood ratio and for metabolism in vivo.
# Data were acquired using a PET/CT small-animal scanner (nanoPET/CT; Mediso). A CT scan (semicircular full trajectory, maximum field of view, 480 projections, 50 kVp, 300 ms, and 1:4 binning) was acquired for attenuation correction. Immediately after radiotracer administration, a 120- or 240-min emission scan was obtained using 3-dimensional 1:5 mode. For rat studies, rebinning was 18 × 10 s, 2 × 30 s, 1 × 60 s, 2 × 2 min, 10 × 5 min, 6 × 10 min, or 18 × 10 min. For mouse studies, rebinning was 4 × 5 min, 4 × 10 min, or 9 × 20 min. Rat PET studies were reconstructed using the iterative Tera-Tomo 3-dimensional reconstruction algorithm (Mediso), which includes point-spread correction, and the following settings: 4 iterations, 6 subsets, full detector model, low regularization, spike filter on, voxel size of 0.4 mm, and 400- to 600-keV energy window. Mouse dosimetry PET data were reconstructed using filtered backprojection, a voxel size of 0.4 mm, and a 400- to 600-keV energy window. All PET data were corrected for randoms, scatter, and attenuation.
# Reconstructed scans were imported into PMOD, version 3.8 (PMOD Technologies). Volumes of interest (VOIs) were manually drawn around the brain, heart, and lung using CT images. To sample the infarct area (or an equivalent area in naïve hearts), averaged PET images (0–120 min) were used to place 3 spheric VOIs at the center of the infarct territory within the ventricular wall (1.5 mm^3). […] Time–activity curves were generated, and SUVs were calculated as concentration in the VOI divided by injected dose divided by animal weight. Kinetic modeling was performed using the 2-tissue-compartment model to estimate the kinetic rate constants K1–k4 and the total volume of distribution (VT) in different tissues. Blood volume fraction (VB) was not modeled in this study. Two-tissue-compartment modeling was selected as the preferred model on the basis of a comparison of goodness and robustness of fitting versus several other models (Supplemental Fig. 3; Supplemental Table 2). The binding potential relative to nondisplaceable volume (BPND) was defined as k3/k4 ([19]). The transfer-corrected BPND, termed BPTC, was formulated as follows:Eq. 1 BPTC=k3/k4÷K1,
# [3] = Brain, Blocked Naive (PK11195, 1mg/kg) n = 3
# [4] = Global Heart, Blocked Naive (PK11195, 1mg/kg) n = 3
# [5] = LV Anterior Wall, Blocked Naive (PK11195, 1mg/kg) n = 3
# [6] = Lung, Blocked Naive (PK11195, 1mg/kg) n = 3
compound,measurement,setting,value
CC[C@@H](C)N(C)C(=O)c1nc2ccccc2c(-c2ccccc2)c1C[18F] [^18F-LW223],fraction unbound,[1],0.385
same,"K1 (2T analysis), mean",[2]; [3],0.06
same,"VT (2T analysis), mean",[2]; [3],0.93
same,"k2 (2T analysis), mean",[2]; [3],0.11
same,"k3 (2T analysis), mean",[2]; [3],2.324
same,"k3/k4 (2T analysis), mean",[2]; [3],0.71
same,"k4 (2T analysis), mean",[2]; [3],2.33
same,"K1 (2T analysis), mean","[2]; Brain, Naive n = 6",0.14
same,"VT (2T analysis), mean","[2]; Brain, Naive n = 6",1.6
same,"k2 (2T analysis), mean","[2]; Brain, Naive n = 6",0.18
same,"k3 (2T analysis), mean","[2]; Brain, Naive n = 6",0.016
same,"k3/k4 (2T analysis), mean","[2]; Brain, Naive n = 6",1.22
same,"k4 (2T analysis), mean","[2]; Brain, Naive n = 6",0.01
same,"K1 (2T analysis), mean",[2]; [4],0.19
same,"VT (2T analysis), mean",[2]; [4],4.56
same,"k2 (2T analysis), mean",[2]; [4],0.23
same,"k3 (2T analysis), mean",[2]; [4],0.721
same,"k3/k4 (2T analysis), mean",[2]; [4],4.52
same,"k4 (2T analysis), mean",[2]; [4],0.13
same,"K1 (2T analysis), mean","[2]; Global Heart, Naive n = 6",0.58
same,"VT (2T analysis), mean","[2]; Global Heart, Naive n = 6",9.93
same,"k2 (2T analysis), mean","[2]; Global Heart, Naive n = 6",0.33
same,"k3 (2T analysis), mean","[2]; Global Heart, Naive n = 6",0.031
same,"k3/k4 (2T analysis), mean","[2]; Global Heart, Naive n = 6",4.77
same,"k4 (2T analysis), mean","[2]; Global Heart, Naive n = 6",0.01
same,"K1 (2T analysis), mean",[2]; [5],0.28
same,"VT (2T analysis), mean",[2]; [5],75.25
same,"k2 (2T analysis), mean",[2]; [5],0.08
same,"k3 (2T analysis), mean",[2]; [5],0.855
same,"k3/k4 (2T analysis), mean",[2]; [5],12.64
same,"k4 (2T analysis), mean",[2]; [5],0.23
same,"K1 (2T analysis), mean","[2]; LV Anterior Wall, Naive n = 6",0.9
same,"VT (2T analysis), mean","[2]; LV Anterior Wall, Naive n = 6",29.95
same,"k2 (2T analysis), mean","[2]; LV Anterior Wall, Naive n = 6",0.26
same,"k3 (2T analysis), mean","[2]; LV Anterior Wall, Naive n = 6",0.033
same,"k3/k4 (2T analysis), mean","[2]; LV Anterior Wall, Naive n = 6",7.99
same,"k4 (2T analysis), mean","[2]; LV Anterior Wall, Naive n = 6",0.00
same,"K1 (2T analysis), mean",[2]; [6],0.16
same,"VT (2T analysis), mean",[2]; [6],2.2
same,"k2 (2T analysis), mean",[2]; [6],0.35
same,"k3 (2T analysis), mean",[2]; [6],0.181
same,"k3/k4 (2T analysis), mean",[2]; [6],3.19
same,"k4 (2T analysis), mean",[2]; [6],0.05
same,"K1 (2T analysis), mean","[2]; Lung, Naive n = 6",0.94
same,"VT (2T analysis), mean","[2]; Lung, Naive n = 6",6.94
same,"k2 (2T analysis), mean","[2]; Lung, Naive n = 6",0.32
same,"k3 (2T analysis), mean","[2]; Lung, Naive n = 6",0.031
same,"k3/k4 (2T analysis), mean","[2]; Lung, Naive n = 6",1.38
same,"k4 (2T analysis), mean","[2]; Lung, Naive n = 6",0.02
same,specificity of in vivo binding to TSPO,"[2]; PK11195 1 mg/kg intravenously, blocking and displacement",blocked and displaced by PK11195
same,BPTC,[2]; anterior wall of naïve animals,10.0 ± 2.4 cm^3/mL/min
same,excretion routes,[2]; mice and rats,both the urinary and the hepatobiliary excretion routes
same,"Peak SUV, brain",[2]; naïve rat,0.83 ± 0.18 g/mL
same,"SUVpeak, heart",[2]; rat,2.5
same,"SUVpeak, lung",[2]; rat,4.0
same,VT in the brain,[2]; rat,1.1–2.2 mL/cm^3
